Measurements as given in paper PMC9454246, “The PqsE Active Site as a Target for Small Molecule Antimicrobial Agents against Pseudomonas aeruginosa” (Biochemistry, 2022).

Legend:
PqsE [1] = target: T1, PqsE (Pseudomonas aeruginosa, UniProt P20581); details: in words; cited from earlier work
T1 construct: made in house

PqsE–RhlR interaction = target: T2, PqsE–RhlR interaction (Pseudomonas aeruginosa, UniProt P20581); experiment: PqsE–RhlR interaction (in vitro pull-down); format: binding; details: in words
T2 construct: made in house
Protocol: (§1) 6xHis-PqsE proteins were purified for biochemical assays (tagged) and crystallography (tag removed), as described previously.[24] Enzyme activities of purified 6xHis-PqsE variants were measured as previously reported with MU-butyrate as the substrate.[25] Fluorescence polarization assays with the BB562 active site probe were performed as described.[24] The melting temperature (Tm) of each purified 6xHis-PqsE variant was measured using DSF as described previously.[24] Interaction between PqsE and RhlR proteins in vitro was measured as described previously using pull-down assays.[24] Pyocyanin production by P. aeruginosa PA14 strains carrying pqsE variants on the pUCP18 plasmid was measured as described.[24] The ability of PqsE variants to increase RhlR transcription factor activity in an E. coli reporter assay was assessed as previously described.[24] All small molecule syntheses and characterization are described in the Supporting Information.

PqsE [2] = target: T1, PqsE; experiment: Competitive fluorescence polarization with the BB562 active site probe; details: competition with BB562 active site probe for binding to PqsE; one experiment performed in triplicate
Source text: (a) Structures of the precursor molecules BB391 and BB393 and the hybrid derivative BB580. Positions denoted 1, 2, and 3 were derivatized to explore the binding affinity for the PqsE active site. […] Polarization value for PqsE-BB562 in the absence of a competitor is defined as 100% probe bound. All polarization values were background-subtracted by the reading for the probe in the absence of PqsE (background fluorescence). […] Both the BB584 molecule and key PqsE amino acid sidechains are shown as sticks. Amino acid sidechain carbons are depicted in gray and BB584 carbons are shown in tan. Iron atoms and water molecules are shown as orange and green spheres, respectively. Oxygen and nitrogen atoms are in red and blue, respectively. Hydrogen bonds are shown as dotted yellow lines.
as §1, with “Information. […]” for “Information.”
a Design of Hybrid Scaffold b Core Aromatic Group […]
Engaging Hydrophobic Groove […]
the amide bond orientation. b) Optimization of “position 2”, the core aromatic group. c) Optimization of “position 3”, the hydrophobic tail. Competition curves with the BB562 active site fluorescent probe were f it from the average of triplicates and erro r bars represent standard deviation s. Polarization value for PqsE-BB562 in the absence of competitor is defined as 100% Probe Bound. All polarization values were background-subtracted by the reading for the probe in the absence of PqsE (background fluorescence).

PqsE(E280A) = PqsE(E280A) (Pseudomonas aeruginosa, UniProt P20581, E280A); details: read-out: BB562 Binding Kapp; PqsE variant E280A; 2 µM MnCl2
Protocol: (§2) (a) Structure of PqsE(E182W) (blue) overlaid with that of WT PqsE (PDB: 2Q0I, gray). The active site iron atoms are shown in orange. […] (b) Structure of PqsE(E182W/E280A) (maroon) overlaid with that of WT PqsE (as in a). In panels a and b, residue E280 is shown in stick representation. […] Kapp was determined in two independent experiments performed in triplicate. (d) Hydrolysis of 4-methylumbelliferyl butyrate (MU-butyrate) by the designated purified PqsE proteins. Values are represented as % activity of WT PqsE protein. Results are the average of two independent experiments performed in triplicate. Error bars represent standard deviations. (e) First derivative plots (dF/dT is defined as the change in SYPRO Orange fluorescence divided by change in temperature) of melting curves for the designated PqsE proteins. The peak of each curve is defined as the Tm of that protein.
as §1
(§3) a Stability of PqsE Proteins WT
(§4) Hydrolysis of MU-butyrate
(§5) Fig. S3. Biochemical characterization of purified PqsE variants. a) First derivative plots of melt curves for
(§6) PqsE prot eins. All proteins were tested at 5 µM with 200 µM MnCl 2. dF/dT indicates the change in SYPRO
(§7) Orange fluorescence divided by the change in tempera ture.
(§8) Results are the average of two independent experiments performed in triplicate.
(§9) Error bars represent standard deviations.

PqsE(D73A/E182W) = PqsE(D73A/E182W) (Pseudomonas aeruginosa, UniProt P20581, D73A/E182W); details: read-out: BB562 Binding Kapp; PqsE variant D73A/E182W; 2 µM MnCl2; error ND (could not be calculated)
Protocol: as §2, §1, §3, §4, §5, §6, §7, §8, §9

PqsE(NI) = PqsE(NI) (Pseudomonas aeruginosa, UniProt P20581, R243A/R246A/R247A); details: read-out: BB562 Binding Kapp; PqsE variant NI (R243A/R246A/R247A); 2 µM MnCl2
Protocol: as §2, §1, §3, §4, §5, §6, §7, §8, §9

PqsE(NI/E280A) = PqsE(NI/E280A) (Pseudomonas aeruginosa, UniProt P20581, E280A/R243A/R246A/R247A); details: read-out: BB562 Binding Kapp; PqsE variant NI/E280A; 2 µM MnCl2
Protocol: as §2, §1, §3, §4, §5, §6, §7, §8, §9

PqsE(E182W/E280A) = PqsE(E182W/E280A) (Pseudomonas aeruginosa, UniProt P20581, E182W/E280A)
Protocol: as §2, §1, §3, §4, §5, §6, §7, §8, §9

WT PqsE = WT PqsE (Pseudomonas aeruginosa, UniProt P20581); details: read-out: BB562 Binding Kapp, 2 µM MnCl2, two independent experiments in triplicate
Protocol: as §2, §1, §3, §4, §5, §6, §7, §8, §9

PqsE(E182W/NI) = PqsE(E182W/NI) (Pseudomonas aeruginosa, UniProt P20581, E182W/R243A/R246A/R247A); details: read-out: BB562 Binding Kapp; PqsE variant E182W/NI; 2 µM MnCl2; error ND (could not be calculated)
Protocol: as §2, §1, §3, §4, §5, §6, §7, §8, §9

PqsE(D73A/E280A) = PqsE(D73A/E280A) (Pseudomonas aeruginosa, UniProt P20581, D73A/E280A); details: read-out: BB562 Binding Kapp; PqsE variant D73A/E280A; 2 µM MnCl2
Protocol: as §2, §1, §3, §4, §5, §6, §7, §8, §9

PqsE(E182W) = PqsE(E182W) (Pseudomonas aeruginosa, UniProt P20581, E182W)
Protocol: as §2, §1, §3, §4, §5, §6, §7, §8, §9

PqsE(D73A/NI) = PqsE(D73A/NI) (Pseudomonas aeruginosa, UniProt P20581, D73A/R243A/R246A/R247A); details: read-out: BB562 Binding Kapp; PqsE variant D73A/NI; 2 µM MnCl2; error ND (could not be calculated)
Protocol: as §2, §1, §3, §4, §5, §6, §7, §8, §9

PqsE(D73A) = PqsE(D73A) (Pseudomonas aeruginosa, UniProt P20581, D73A); details: read-out: BB562 Binding Kapp; PqsE variant D73A; 2 µM MnCl2
Protocol: as §2, §1, §3, §4, §5, §6, §7, §8, §9

O=C(Nc1cccc(-c2ccn[nH]2)c1)c1cccc2cn[nH]c12 [BB391]
competition with the BB562 active site probe for binding to PqsE (PqsE [1]): mid-nanomolar | inhibition/disruption of the PqsE–RhlR interaction (PqsE–RhlR interaction): none of the three compounds disrupt the PqsE–RhlR interaction | EC50 (PqsE [2]): 160 ± 54 nM

CCC(C)(CNC(=O)Nc1ccc(C(=O)Nc2nccs2)cc1)N1CCOCC1 (stereo not drawn) [BB393]
competition with the BB562 active site probe for binding to PqsE (PqsE [1]): mid-nanomolar | inhibition/disruption of the PqsE–RhlR interaction (PqsE–RhlR interaction): none of the three compounds disrupt the PqsE–RhlR interaction | EC50 (PqsE [2]): 93 ± 29 nM

O=C(NCCCn1cc(-c2ccc(NC(=O)c3cccc4cn[nH]c34)cc2)nn1)c1ccc2c(c1)C(=O)OC21c2ccc(O)cc2Oc2cc(O)ccc21 [BB562]
Kd (PqsE(E280A)): 210 ± 90 nM | Kd (PqsE(D73A/E182W)): 8120 nM | Kd (PqsE(NI)): 428 ± 100 nM | Kd (PqsE(NI/E280A)): 669 ± 220 nM | binding affinity for the active site fluorescent probe (PqsE(E182W/E280A); PqsE(E182W/E280A), in words, relative to WT PqsE): WT binding affinity | Kd (PqsE(E182W/E280A); read-out: BB562 Binding Kapp, PqsE variant E182W/E280A, 2 µM MnCl2): 418 ± 160 nM | Kd (WT PqsE): 416 ± 170 nM | Kd (PqsE(E182W/NI)): 4330 nM | Kd (PqsE(D73A/E280A)): 468 ± 300 nM | binding affinity for the active site fluorescent probe (PqsE(E182W); PqsE(E182W), in words, relative to WT PqsE): reduced binding affinity | Kd (PqsE(E182W); read-out: BB562 Binding Kapp, PqsE variant E182W, 2 µM MnCl2): 5730 ± 4000 nM | Kd (PqsE(D73A/NI)): 564 nM | Kd (PqsE(D73A)): 507 ± 380 nM

CCC(C)(CNC(=O)Nc1ccc(NC(=O)c2cccc3cn[nH]c23)cc1)N1CCOCC1 (stereo not drawn) [BB580]
EC50 (PqsE [2]): 99 nM

CCC(C)(CNC(=O)Nc1ccc(C(=O)Nc2cccc3cn[nH]c23)cc1)N1CCOCC1 (stereo not drawn) [BB581]
EC50 (PqsE [2]): 281 nM

O=C(NCc1cnccn1)Nc1ccc(NC(=O)c2cccc3cn[nH]c23)cc1 [BB582]
EC50 (PqsE [2]): 302 ± 141 nM

O=C(NCc1ccccc1)Nc1ccc(NC(=O)c2cccc3cn[nH]c23)cc1 [BB583]
EC50 (PqsE [2]): 71 nM

CC(C)(C)CNC(=O)Nc1ccc(NC(=O)c2cccc3cn[nH]c23)cc1 [BB584]
inhibition/disruption of the PqsE–RhlR interaction (PqsE–RhlR interaction): none of the three compounds disrupt the PqsE–RhlR interaction | EC50 (PqsE [2]): 34 nM

CCC(C)(CNC(=O)Nc1cnc(NC(=O)c2cccc3cn[nH]c23)s1)N1CCOCC1 (stereo not drawn) [BB585]
EC50 (PqsE [2]): > 1000 nM

CCC(C)(CNC(=O)Nc1cc(NC(=O)c2cccc3cn[nH]c23)[nH]n1)N1CCOCC1 (stereo not drawn) [BB586]
EC50 (PqsE [2]): > 1000 nM

CCC(CNC(=O)Nc1ccc(NC(=O)c2cccc3cn[nH]c23)cc1)N1CCOCC1 (stereo not drawn) [BB587]
EC50 (PqsE [2]): 273 nM

CC(CNC(=O)Nc1ccc(NC(=O)c2cccc3cn[nH]c23)cc1)N1CCOCC1 (stereo not drawn) [BB588]
EC50 (PqsE [2]): 290 nM

CCC(C)(CNC(=O)Nc1ccc(NC(=O)c2cccc3cn[nH]c23)nc1)N1CCOCC1 (stereo not drawn) [BB589]
EC50 (PqsE [2]): 608 ± 647 nM
